The text below walks through data of patent publication US7317038B2, “Nerve regeneration promoters containing semaphorin inhibitor as the active ingredient” (Dainippon Sumitomo Pharma Co., Ltd., priority 2000, dated 2008).

“Also recorded” adds a separate entry of the source. Some results are limits rather than exact numbers.

One data set deals with T1, Sema3A (Mus musculus, UniProt O08665).
T1 construct: expressed in transfected cells; host or cells: COS7
T1 sequence (O08665 21-772): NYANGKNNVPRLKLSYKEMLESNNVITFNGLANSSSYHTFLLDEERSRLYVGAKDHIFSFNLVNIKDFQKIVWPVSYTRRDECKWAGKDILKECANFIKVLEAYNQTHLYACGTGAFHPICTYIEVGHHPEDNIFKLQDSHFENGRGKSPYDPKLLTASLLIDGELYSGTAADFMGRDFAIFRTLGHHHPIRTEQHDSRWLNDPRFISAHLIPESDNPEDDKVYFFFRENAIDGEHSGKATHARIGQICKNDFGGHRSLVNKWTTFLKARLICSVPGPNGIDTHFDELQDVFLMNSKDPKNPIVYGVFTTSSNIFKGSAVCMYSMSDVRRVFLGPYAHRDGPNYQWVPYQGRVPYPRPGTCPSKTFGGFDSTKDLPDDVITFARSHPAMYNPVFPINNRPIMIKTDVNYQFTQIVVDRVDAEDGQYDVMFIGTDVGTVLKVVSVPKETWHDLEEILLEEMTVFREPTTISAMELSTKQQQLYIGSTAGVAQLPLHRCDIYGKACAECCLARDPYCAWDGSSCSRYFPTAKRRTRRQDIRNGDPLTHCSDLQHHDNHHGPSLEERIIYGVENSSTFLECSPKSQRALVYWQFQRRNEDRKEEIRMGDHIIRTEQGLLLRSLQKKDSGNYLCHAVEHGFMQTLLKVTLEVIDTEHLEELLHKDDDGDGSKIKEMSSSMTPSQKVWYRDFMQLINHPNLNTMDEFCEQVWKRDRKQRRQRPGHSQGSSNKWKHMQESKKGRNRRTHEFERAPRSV
The data set is described as follows: Collagen gel co-culture: suppression of neurite outgrowth inhibitory action of Sema3A. Type of data set: cell-based. On the set-up: key to suppression of neurite outgrowth inhibitory activity of Sema3A, score / inhibition of neurite outgrowth-inhibitory action of Sema3A, score: neurites outgrew in a complete concentric circular shape just like for the control groups where Sema3A-non-expressing COS7 cells were used, it was scored +++ (a strong inhibitory effect for Sema3A); outgrowth was found almost in a concentric circular shape accompanied with a little suppression of the outgrowth toward the direction of Sema3A-expressing COS cells, it was scored ++; outgrowth toward the direction of Sema3A-expressing COS cells is fairly suppressed to present a crescent shape, it was scored +; outgrowth toward the direction of Sema3A-expressing COS cells was not found at all (no inhibitory effect for Sema3A), it was scored −. The conditions noted are these: for suppression of neurite outgrowth inhibitory activity of Sema3A, score: Example 5. How it is done: Whether the object compounds (SPF-3059-1, M162, A721) have persistent inhibitory action to Sema3A was analyzed by the collagen gel co-culture method (Neuroprotocols 4, 116, 1994) using Sema3A-expressing COS7 cell clumps and 7- or 8-day-old chick embryo dorsal root ganglions. The Sema3A-expressing COS7 cell clumps were generated as follows. 1 μg of Sema3A-expression plasmid was introduced into COS7 cells (100000 cells/35 mm culture plate), which were cultured overnight, with the FuGENE6 transfection reagent (Roche). 2.5 hours after the starting of the transfection, the COS7 cells were collected by trypsinization and centrifugation, and re-suspended in a medium of 200 μl. 20 μl of the cell suspension was placed on the lid of the culture plate (inside) and the lid was turned over, and then the suspension was cultivated for 20 hours (hanging drop culture) (Cell 78, 425, 1994). When the culture was over, aggregated COS7 cells (clump) were collected and trimmed to a diameter of 0.5 mm. The Sema3A-expressing COS7 cell clump and the above-mentioned dorsal root ganglions were placed in parallel at a distance of 0.5 to 1 mm in a 0.2% collagen gel which was then cultivated in a medium containing the aforementioned compounds at various concentrations for 2 days at 37° C. under 5% CO2. Glutaraldehyde was quickly added therein to make the final concentration 1%. The cultures were then left for 1 hour at room temperature so that the tissues were fixed, and the neurite outgrowth was microscopically observed. The results are found in FIG. 4.
When a medium not containing a subject compound was used, neurites were unable to grow towards the COS7 cell clump with the high concentration of Sema3A and grew only to the opposite direction.
In a similar way as in Example 4, suppression of the neurite outgrowth inhibitory activity was analyzed for the compounds, SPF-3059-1, SPF-3059-2 and SPF-3059-5. When the neurites outgrew in a complete concentric circular shape just like for the control groups where Sema3A-non-expressing COS7 cells were used, it was scored +++ (a strong inhibitory effect for Sema3A). When the outgrowth was found almost in a concentric circular shape accompanied with a little suppression of the outgrowth toward the direction of Sema3A-expressing COS cells, it was scored ++. […] When the outgrowth toward the direction of Sema3A-expressing COS cells was not found at all (no inhibitory effect for Sema3A), it was scored −.

Another data set relates to COS7 cells. The data set is described as follows: Effect on cell proliferation (MTT). Type of data set: cell-based. Conditions: two days. Here is the method: COS7 cells were seeded onto a 96-well plate (medium 100 μl/well) at 10000 cells per well. At the same time, SPF-3059-1 of various concentrations was added and the cells were cultivated for two days in the presence of 5% CO2 at 37° C. Each well was then added with 10 μl of MTT solution at 5 mg/ml and cultured for another one hour. Subsequently, the culture supernatant was removed and formazan (an MTT derivative produced in viable cells) accumulated in the cells was dissolved by the addition of 50 μl DMSO and then the absorbance at 570 nm was measured to determine the proliferation of COS7 cells. […] The longitudinal and lateral axes in the figure show cell proliferation and the SPF-3059-1 concentration, respectively. Besides, the standard deviation (n=4) was added to each column.
The same effect on cell proliferation as in Example 9 was examined for the compounds, SPF-3059-1, SPF-3059-2 and SPF-3059-5. The wells with these compounds were served as samples, the wells with PBS were served as control, and the wells for which the experiment was carried out without adding the cells was served as blank. IC50 (μg/ml), the inhibitory rate for cell proliferation, was determined, which is calculated by the equation shown below. The inhibitory rate for cell proliferation (%)=(1−(absorbance of a sample well−absorbance of the blank well)/(absorbance of the control well−absorbance of the blank well))×100

With `CC(=O)c1c(C)c(C(=O)C2COc3cc(O)c(O)c(C(=O)O)c3C2=O)cc2c(=O)c3c(C(=O)O)c(O)c(O)cc3oc12` (stereo not drawn) [SPF-3059-1], the entries for the “suppression of neurite outgrowth inhibitory activity of Sema3A, score” value on Sema3A (0.5 μg/ml compound), at Sema3A (1.0 μg/ml compound) and at Sema3A (2.0 μg/ml compound) were “+”, “++” and “+++”, respectively. In addition, the “persistent inhibitory action to Sema3A (neurite outgrowth toward Sema3A-expressing COS7 cell clump)” value at Sema3A (collagen gel co-culture, 2 days) is “persistently inhibit Sema3A activities; also recorded: persistently inhibited the action of Sema3A”. For the same compound, in the data set with COS7 cells (Chlorocebus aethiops, COS-7, 48 h, read-out: IC50, inhibitory rate for cell proliferation), the IC50 is above 300 µg/mL. Besides, the “suppressing activity for cell proliferation (in words)” value with COS7 cells is “no suppressing activity”.
